{"source": "PubChem BioAssay AID1963433", "about": "(Molecular Pharmacology Branch, DTP, NCI, 2024)", "tested_on": "772245-204-R-J1-PDC complex spheroid growth", "test": "Anticancer human tumor 772245-204-R-J1-PDC patient-derived rhabdomyosarcoma cell line growth inhibition [Asc]", "conditions": "for pIC50: curve of first compound; for viability, T/C: stronger effect = lower value", "how_it_was_run": "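Tumor cells were grown as multicellular spheroids with stromal HUVEC and mesenchymal stem cells and treated singly or in combination. Concentrations fell in half-log steps from the clinical Cmax, or from 10 microM where none was known.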", "note": "pIC50: −log10 of the molar value.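 Note: compound exposure lasted seven days.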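 Throughout, for viability, T/C: 100% = DMSO vehicle control viability.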", "data": [{"smiles": "C#Cc1c(F)ccc2cc(O)cc(-c3ncc4c(N5CC6CCC(C5)N6)nc(OCC56CCCN5CC(F)C6)nc4c3F)c12", "note": "(configuration not stated) + CNC(C)C(=O)NC1CN(S(=O)(=O)c2cccc(S(=O)(=O)N3CCC4CCC(C(=O)NC(c5ccccc5)c5ccccc5)N4C(=O)C(NC(=O)C(C)NC)C3)c2)CCC2CCC(C(=O)NC(c3ccccc3)c3ccccc3)N2C1=O", "values": [{"measurement": "pIC50", "setting": "second compound 0.00316 µM", "value": "< 5.00"}, {"measurement": "pIC50", "setting": "second compound 0.01 µM", "value": "< 5.00"}, {"measurement": "pIC50", "setting": "second compound 0.0316 µM", "value": "< 5.00"}, {"measurement": "pIC50", "setting": "second compound 0.1 µM", "value": "< 5.00"}, {"measurement": "pIC50", "setting": "second compound 0.316 µM", "value": "< 5.00"}, {"measurement": "pIC50", "setting": "second compound 1 µM", "value": "< 5.00"}, {"measurement": "viability, T/C", "setting": "second compound 0.00316 µM, first compound 0.0316 µM", "value": 104, "unit": "%"}, {"measurement": "viability, T/C", "setting": "second compound 0.00316 µM, first compound 0.1 µM", "value": 104, "unit": "%"}, {"measurement": "viability, T/C", "setting": "second compound 0.00316 µM, first compound 0.316 µM", "value": 92.4, "unit": "%"}, {"measurement": "viability, T/C", "setting": "second compound 0.00316 µM, first compound 1 µM", "value": 102, "unit": "%"}, {"measurement": "viability, T/C", "setting": "second compound 0.00316 µM, first compound 3.16 µM", "value": 89.2, "unit": "%"}, {"measurement": "viability, T/C", "setting": "second compound 0.00316 µM, first compound 10 µM", "value": 79, "unit": "%"}, {"measurement": "viability, T/C", "setting": "second compound 0.01 µM, first compound 0.0316 µM", "value": 101, "unit": "%"}, {"measurement": "viability, T/C", "setting": "second compound 0.01 µM, first compound 0.1 µM", "value": 88, "unit": "%"}, {"measurement": "viability, T/C", "setting": "second compound 0.01 µM, first compound 0.316 µM", "value": 91, "unit": "%"}, {"measurement": "viability, T/C", "setting": "second compound 0.01 µM, first compound 1 µM", "value": 104, "unit": "%"}, {"measurement": "viability, T/C", "setting": "second compound 0.01 µM, first compound 3.16 µM", "value": 86.5, "unit": "%"}, {"measurement": "viability, T/C", "setting": "second compound 0.01 µM, first compound 10 µM", "value": 64.1, "unit": "%"}, {"measurement": "viability, T/C", "setting": "second compound 0.0316 µM, first compound 0.0316 µM", "value": 92.7, "unit": "%"}, {"measurement": "viability, T/C", "setting": "second compound 0.0316 µM, first compound 0.1 µM", "value": 93.8, "unit": "%"}, {"measurement": "viability, T/C", "setting": "second compound 0.0316 µM, first compound 0.316 µM", "value": 89.6, "unit": "%"}, {"measurement": "viability, T/C", "setting": "second compound 0.0316 µM, first compound 1 µM", "value": 101, "unit": "%"}, {"measurement": "viability, T/C", "setting": "second compound 0.0316 µM, first compound 3.16 µM", "value": 107, "unit": "%"}, {"measurement": "viability, T/C", "setting": "second compound 0.0316 µM, first compound 10 µM", "value": 71.8, "unit": "%"}, {"measurement": "viability, T/C", "setting": "second compound 0.1 µM, first compound 0.0316 µM", "value": 100, "unit": "%"}, {"measurement": "viability, T/C", "setting": "second compound 0.1 µM, first compound 0.1 µM", "value": 93.4, "unit": "%"}, {"measurement": "viability, T/C", "setting": "second compound 0.1 µM, first compound 0.316 µM", "value": 95.8, "unit": "%"}, {"measurement": "viability, T/C", "setting": "second compound 0.1 µM, first compound 1 µM", "value": 89, "unit": "%"}, {"measurement": "viability, T/C", "setting": "second compound 0.1 µM, first compound 3.16 µM", "value": 101, "unit": "%"}, {"measurement": "viability, T/C", "setting": "second compound 0.1 µM, first compound 10 µM", "value": 67.8, "unit": "%"}, {"measurement": "viability, T/C", "setting": "second compound 0.316 µM, first compound 0.0316 µM", "value": 94.2, "unit": "%"}, {"measurement": "viability, T/C", "setting": "second compound 0.316 µM, first compound 0.1 µM", "value": 67.8, "unit": "%"}, {"measurement": "viability, T/C", "setting": "second compound 0.316 µM, first compound 0.316 µM", "value": 82, "unit": "%"}, {"measurement": "viability, T/C", "setting": "second compound 0.316 µM, first compound 1 µM", "value": 96.5, "unit": "%"}, {"measurement": "viability, T/C", "setting": "second compound 0.316 µM, first compound 3.16 µM", "value": 92.4, "unit": "%"}, {"measurement": "viability, T/C", "setting": "second compound 0.316 µM, first compound 10 µM", "value": 68, "unit": "%"}, {"measurement": "viability, T/C", "setting": "second compound 1 µM, first compound 0.0316 µM", "value": 78.9, "unit": "%"}, {"measurement": "viability, T/C", "setting": "second compound 1 µM, first compound 0.1 µM", "value": 96.2, "unit": "%"}, {"measurement": "viability, T/C", "setting": "second compound 1 µM, first compound 0.316 µM", "value": 93.3, "unit": "%"}, {"measurement": "viability, T/C", "setting": "second compound 1 µM, first compound 1 µM", "value": 83, "unit": "%"}, {"measurement": "viability, T/C", "setting": "second compound 1 µM, first compound 3.16 µM", "value": 80, "unit": "%"}, {"measurement": "viability, T/C", "setting": "second compound 1 µM, first compound 10 µM", "value": 63.9, "unit": "%"}]}]}
